US20080045796A1, “HISTOFLUORESCENT STAIN COMPOSITION FOR ENDOSCOPY” (PENTAX CORPORATION, priority 2006, published 2008)

Columns and labels:
[1] = Measurement of absorption spectrum and fluorescence excitation spectrum; format: physicochemical
Experimental: Measurement of an absorption spectrum and a fluorescence excitation spectrum of Fast Green FCF was performed. The Fast Green FCF (Wako Pure Chemical Industries, Ltd.) was adjusted to 1.0 mg/ml, and the light absorbance was continuously measured at a wavelength of from 200 to 750 nm using a spectrophotometer (manufactured by Shimadzu Corp., BioSpec-1600) to determine the wavelength at which the absorbance reached the maximum. The maximum absorption wavelength of 628 nm thus obtained was irradiated as an excitation wavelength, and the wavelength of the scattered light detected in the perpendicular direction to the light axis of the excitation light was measured using a fluorescence spectrophotometer (manufactured by Shimadzu Corp., RF-1500), thus to obtain a maximum excitation wavelength of 628 nm and a maximum fluorescence wavelength of 652 nm.

[2] = tested on: large intestine of a mouse; assay: Stainability: stain solution injected into large intestine, confocal cross-section of the lumen; details: 1.0 mg/mL, pH 6, 100 μL injected; images at every 5.0 μm from the luminal surface
Experimental: Fast Green FCF was prepared to 1.0 mg/mL using a 0.1 M sodium phosphate buffer solution (pH 6), and 100 μL of the stain solution was injected into the large intestine of a mouse (ddY, 11 weeks old, male). To stain the large intestine evenly while preventing outflow of the stain, the mouse was subjected to laparotomy, and the stain was injected while clipping the upward colon side and the downward colon side of the extracted large intestine with hemostatic clips.
The imaging conditions were such that the diameter of the confocal pinhole was 1.00 airy, and a lens of 20 magnifications was used.

[3] = tested on: large intestine; assay: Tail vein administration, stainability for different regions: large intestine; format: in vivo, mouse; details: 10 mg/mL, 100 μL tail vein, laparotomy after 5 minutes
Experimental: (§1) An evaluation of the tissue stain composition of the present invention was performed for the stainability for different regions. Duodenum, large intestine and liver were extracted and observed.
(§2) Fast Green FCF was prepared to 10 mg/mL using physiological saline at pH 6.0. 100 μL of the prepared Fast Green FCF was administered to a mouse (ddY, 11 weeks old, male) through the tail vein, and the mouse was subjected to laparotomy after 5 minutes. The penetrability was observed by naked eyes, and the stainability and fluorescence were observed using a confocal microscope (Leica Microsystems Corp., TCP-SP2).
The conditions for the confocal microscopic observation were such that the diameter of the confocal pinhole was 1.00 airy, and a cross-sectional image of an area about 10 μm deep from the luminal surface, which image was taken using an oil immersion lens of 63 magnifications, is presented in FIG. 11.

[4] = tested on: large intestine extracted from a mouse; assay: Stainability and tissue penetrability, fluorescence observation of frozen sections; details: 6 μm frozen sections, stained as in Example 3
From the text: The stainability and tissue penetrability of Fast Green FCF (Fast Green GCF, Wako Pure Chemical Industries, Ltd.) were checked by observation of a tissue specimen.
A tissue specimen of the large intestine extracted from a mouse, which had been stained in the same manner as in Example 3, was embedded in an OCT Compound (Sakura Finetek Corp., Tissue-Tek O.C.T. compound), and was frozen by rapidly cooling with dry ice. The frozen section was sliced into 6 μm to prepare frozen sections, and fluorescence observation was performed. The fluorescence observation was performed using a confocal microscope (Leica Microsystems Corp., TCP-SP2) (imaging conditions: using a lens of 40 magnifications, pinhole diameter 171.3 μm).
A tissue section which was similarly embedded in the OCT compound was HE-stained, and the observation result is shown in FIG. 9 as a Comparative Example.

[5] = tested on: tumor tissue developed in the upper part of the ovary of a rat; assay: Extracted tumor tissue immersed in stain, confocal microscope observation (single and double staining)
Experimental: Fast Green FCF was prepared to 1.0 mg/mL using a 0.1 M sodium phosphate buffer solution (pH 7).
The tumor tissue of the rat was extracted and immersed in the prepared stain for 5 minutes to stain the tissue. The remaining unpenetrated portion of the Fast Green was washed off with a 0.1 M sodium phosphate buffer solution (pH 6), and observation was made using a confocal microscope.
The observation conditions were such that the pinhole diameter was 1.00 airy, and an oil immersion lens of 63 magnifications was used.
To verify the stainability at a tumor part, Monascus Yellow was used together with Fast Green FCF to perform double staining. The Monascus Yellow was prepared to 1.0 mg/mL using a 0.1 M sodium phosphate buffer solution (pH 6).

[6] = tested on: liver; assay: Tail vein administration, stainability for different regions: liver; format: in vivo, mouse
Experimental: as §1, §2
Furthermore, the surrounding septum was more strongly stained. The conditions for the confocal microscopic observation were such that the diameter of the confocal pinhole was 1.00 airy, and a cross-sectional image of an area 10 μm deep from the luminal surface, which image was taken using an oil immersion lens of 63 magnifications, is presented in FIG. 12.

[7] = tested on: Duodenum; assay: Tail vein administration, stainability for different regions: duodenum; format: in vivo, mouse
Experimental: as §1, §2
The conditions for the confocal microscopic observation were such that the diameter of the confocal pinhole was 1.00 airy, and an oil immersion lens of 63 magnifications was used.

[8] = tested on: mouse large intestine; assay: Confocal microscope observation of extracted large intestine piece stained with the stain (stain specificity)
Experimental: In order to find the stain specificity of the stain, Fast Green FCF (Wako Pure Chemical Industries, Ltd.) was diluted to a 2.0 mg/mL preparation using a 0.1 M sodium phosphate buffer solution (pH 7), and observation was performed using a confocal microscope (Leica Microsystems Corp., TCS-SP2).
For the sample, a mouse was subjected to laparotomy to extract the large intestine, which was then cut into a piece of 1 cm at every edge and stained with the stain.
The diameter of the confocal pinhole was 1.00 airy, and an oil immersion lens of 63 magnifications was used.
Staining was performed by immersion in the same manner as in Example 2, excitation was induced at a wavelength of 488 nm, and the fluorescent images were observed.
The conditions for the confocal microscope were the same, except for the wavelength of the irradiated laser.

[9] = 10 mg/mL, 100 μL tail vein, laparotomy after 5 minutes

In the case of `CCN(Cc1cccc(S(=O)(=O)[O-])c1)c1ccc(C(=C2C=CC(=[N+](CC)Cc3cccc(S(=O)(=O)[O-])c3)C=C2)c2ccc(O)cc2S(=O)(=O)[O-])cc1.[Na+].[Na+]` [Fast Green FCF], the “can be excited at, for example” value [1] is reported as 628 nm, the fluorescence detected at [1] is reported as 652 nm and the maximum absorption wavelength ([1]; 1.0 mg/ml, spectrophotometer 200 to 750 nm) is reported as 628 nm. The maximum excitation wavelength ([1]; fluorescence spectrophotometer) was 628 nm, the maximum fluorescence wavelength ([1]; fluorescence spectrophotometer) was 652 nm and the “fluorescent contrast in confocal cross-sectional images” value [2] was “provides good fluorescent contrast for the lamina propria mucosae”. The “color change visible by naked eyes” value [3] was “did not show color changes that were clear enough to be visible by naked eyes”, the “penetration of the dye” value [3] was “the dye penetrated sufficiently to the extent that imaging by a confocal imaging system was possible” and the “staining site under confocal microscope” value [3] was “The intercellular space near the luminal surface, and the lamina propria mucosae were well stained”. For the same molecule, the “fluorescent contrast in frozen section, compared with HE staining” value [4] was “provided good fluorescent contrast for the lamina propria mucosae”, the “fluorescent contrast in confocal images” value ([5]; 1.0 mg/mL, pH 7, immersed 5 minutes) was “provided good fluorescent contrast for the connective tissue fibers in the tumor tissue” and the “staining site in double staining” value ([5]; Monascus Yellow 1.0 mg/mL pH 6 together with Fast Green FCF) was “slightly stained the cells but more strongly stained the fibrous part”. The “staining site under confocal microscope” value [6, 9] was “not only the intercellular space and cellular membrane as observed in the duodenum or large intestine but also the lobular parts were stained”, the “fluorescent contrast under confocal microscope” value ([6]; connective tissue in the liver) was “provided good contrast for the Glisson's capsule” and the “staining site under confocal microscope” value [7, 9] was “Strong staining was achieved not in the cytoplasm but in the cellular membrane or intercellular space”. The “staining visible by naked eyes” value [7, 9] was “stained in deep-green color to an extent of being clearly visible by naked eyes”, the “fluorescent contrast under a confocal microscope” value ([7]; epithelial cells) was “provides clear fluorescent contrast for the shape of the epithelial cells” and the “contrast under a white light source” value ([7]; small intestinal villi) was “conferred contrast such that observation of the small intestinal villi under a white light source became feasible”. The “fluorescent contrast in confocal image” value ([8]; 2.0 mg/mL, pH 7, He-Ne laser 633 nm, fluorescence 650 to 750 nm) was “provided fluorescent contrast to the images of the intercellular space of the mucosal epithelium of the large intestine” and the “chromophilic regions, Fast Green FCF versus Fluorescite” value ([8]; Fluorescite excited at 488 nm, single and double-stained images) was “the stain and Fluorescite had different chromophilic regions”.
